Results: the supplement of paper PMC10627819

Legend:
S. aureus Newman = assay: Bliss interaction score (quartile over a dose matrix) (fitness difference); higher = more antagonism (negative = synergy)
Procedure, shortened: (§1)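 Growth in each well was taken as OD595 at entry into stationary phase. Dividing by the plate's robust no-drug mean and capping at 1 gave fitness, and single-drug fitness was inferred from the combination data. The Bliss score, observed minus product-expected fitness, is summarised by quartiles over technical, biological and donor/recipient replicates.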

S. pneumoniae D39V [1] = assay: as above
Procedure, shortened: as §1

S. aureus DSM 20231 = assay: as above
Procedure, shortened: as §1

B. subtilis 168 = assay: as above
Procedure, shortened: as §1

S. pneumoniae D39V [2] = assay: fitness (endpoint OD595 vs no drug) (fraction); higher = more growth
Procedure, shortened: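 Fitness was defined as the optical density at the transition into stationary phase relative to the robust mean of no-drug control wells. Values were capped at 1. Cultures were started at OD595 0.01 in 384-well plates (30 µl, or 55 µl for S. pneumoniae) in TSB, LB Lennox or CY at 37 °C. OD595 was recorded every 30 min over 14 h, with the first reading subtracted as background.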
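For Bliss interaction score (quartile over a dose matrix) in this document: first quartile when negative (synergy) and third quartile when positive (antagonism).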

CC1(C)S[C@@H]2[C@H](NC(=O)[C@H](N)c3ccc(O)cc3)C(=O)N2[C@H]1C(=O)O [Amoxicillin] + CCC(C)C1C(=O)NC(=C)C(=O)NC(C(=O)NC(CSCC(C(=O)N1)NC(=O)/C(=C/C)/NC(=O)C(C(C)CC)N)C(=O)NC2C(SCC(NC(=O)CNC(=O)C3CCCN3C2=O)C(=O)NC(CCCCN)C(=O)NC4C(SCC(NC(=O)CNC(=O)C(NC(=O)C(NC(=O)C(NC(=O)CNC4=O)C)CC(C)C)CCSC)C(=O)NC(CC(=O)N)C(=O)NC(CCSC)C(=O)NC(CCCCN)C(=O)NC5C(SCC6C(=O)NC(C(=O)NC(CSC(C(C(=O)N6)NC(=O)C(NC5=O)C)C)C(=O)NC(CO)C(=O)NC(C(C)CC)C(=O)NC(CC7=CN=CN7)C(=O)NC(C(C)C)C(=O)NC(=C)C(=O)NC(CCCCN)C(=O)O)CC8=CN=CN8)C)C)C)CC(C)C [Nisin]
main component drawn
Details	Bliss interaction score
B. subtilis 168	-0.105
S. aureus DSM 20231	-0.111
S. aureus Newman	-0.0715
S. pneumoniae D39V [1]	0.09

fitness, S. pneumoniae D39V [2], main component drawn
Details	partner 0.4275 µg/mL	partner 0.855 µg/mL	partner 1.6 µg/mL	partner 1.71 µg/mL	partner 3.2 µg/mL	partner 6.4 µg/mL
first compound 0.0008 µg/mL	≥ 1	0.534	–	0.106	–	–
first compound 0.0015 µg/mL	0.981	–	0.135	0.119	0.0433	0.0441
first compound 0.003 µg/mL	0.953	0.705	0.38	0.13	0.0777	0.0249

fitness, S. pneumoniae D39V [2], one replicate, main component drawn
Details	partner 1.6 µg/mL	partner 3.2 µg/mL	partner 6.4 µg/mL
first compound 0.0008 µg/mL	0.0458	0.094	0.0228
first compound 0.006 µg/mL	0.289	0.0544	0.0443

CC1(C)S[C@@H]2[C@H](NC(=O)[C@H](N)c3ccc(O)cc3)C(=O)N2[C@H]1C(=O)O [Amoxicillin] + CO[C@H]1/C=C/O[C@@]2(C)Oc3c(C)c(O)c4c(O)c(c(/C=N/N5CCN(C)CC5)c(O)c4c3C2=O)NC(=O)/C(C)=C\C=C\[C@H](C)[C@H](O)[C@@H](C)[C@@H](O)[C@@H](C)[C@H](OC(C)=O)[C@@H]1C [Rifampicin]
Details	Bliss interaction score
B. subtilis 168	0.0837
S. aureus DSM 20231	0.133
S. aureus Newman	0.073
S. pneumoniae D39V [1]	0.0783

S. pneumoniae D39V [2], partner 0.025 µg/mL
Details	fitness
first compound 0.0008 µg/mL	0.925
first compound 0.0015 µg/mL	0.917
first compound 0.003 µg/mL	0.905

S. pneumoniae D39V [2], one replicate
Details	fitness
first compound 0.0008 µg/mL, partner 0.2 µg/mL	0
first compound 0.0015 µg/mL, partner 0.2 µg/mL	0
first compound 0.003 µg/mL, partner 0.2 µg/mL	0
first compound 0.006 µg/mL, partner 0.025 µg/mL	0.468
first compound 0.006 µg/mL, partner 0.05 µg/mL	0.546
first compound 0.006 µg/mL, partner 0.1 µg/mL	0.261

C[C@H]1COc2c(N3CCN(C)CC3)c(F)cc3c(=O)c(C(=O)O)cn1c23 [Levofloxacin] + C/C(=C\C(=O)OCCCCCCCCC(=O)O)C[C@@H]1OC[C@H](C[C@@H]2O[C@H]2[C@@H](C)[C@H](C)O)[C@@H](O)[C@H]1O [Pseudomonic acid]
Details	Bliss interaction score
B. subtilis 168	0.0468
S. aureus DSM 20231	0.0199
S. aureus Newman	0.0537
S. pneumoniae D39V [1]	0.0974

fitness, S. pneumoniae D39V [2]
Details	first compound 0.1725 µg/mL	first compound 0.2 µg/mL	first compound 0.345 µg/mL	first compound 0.4 µg/mL	first compound 0.69 µg/mL	first compound 0.8 µg/mL
partner 0.03 µg/mL	0.875	0.899	0.856	0.882	0.598	0.647
partner 0.06 µg/mL	0.822	0.752	0.781	0.766	0.541	0.687
partner 0.12 µg/mL	0.57	0.573	0.524	0.599	0.376	0.519
